The source of these data is patent US10471046B2, “Method for treating, preventing, or reducing the risk of skin infection” (Melinta Subsidiary Corp., priority 2014, dated 2019).

Molecules are shown by their SMILES. Converted amounts (≈) assume the structure as drawn.

One test deals with S. aureus. The test is described as follows: Minimum inhibitory concentrations (MICs) for S. aureus of exemplary compounds (Table 2). It is filed as cell-based. The note with it: Staphylococcus aureus, minimum inhibitory concentrations for S. aureus; read-out: MICs. An excerpt: Exemplary compounds in accordance with the invention are listed in Table 2 with their minimum inhibitory concentrations (MICs) (μg/mL) for S. aureus:
Furthermore, the antibiotic compounds can be assayed for anti-proliferative or anti-infective properties on a cellular level. For example, where the target organism is a microorganism, the activity of compounds of interest can be assayed by growing the microorganisms of interest in media either containing or lacking the compound. Growth inhibition can be indicative that the molecule could be acting as a protein synthesis inhibitor. […] For this purpose, a panel of bacterial strains can be assembled to include a variety of target pathogenic species, some containing resistance mechanisms that have been characterized. Use of such a panel of organisms permits the determination of structure-activity relationships not only in regards to potency and spectrum, but also with a view to obviating resistance mechanisms. The assays can be performed in microtiter trays according to conventional methodologies as published by The National Committee for Clinical Laboratory Standards (NCCLS) guidelines (NCCLS. M7-A5-Methods for Dilution Antimicrobial Susceptibility Tests for Bacteria That Grow Aerobically; Approved Standard-Fifth Edition. NCCLS Document M100-S12/M7 (ISBN 1-56238-394-9)).
Consider `CC(=O)NC[C@H]1CN(c2ccc(-c3ccc(CNC(=O)C4CNCCN4)cc3)c(F)c2)C(=O)O1` (mixture of isomers) [Compound 4322, Piperazine-2-(R/S)-carboxylic acid {4′-[5-(S)-(acetylamino-methyl)-2-oxo-oxazolidin-3-yl]-2′-fluoro-biphenyl-4-ylmethyl}-amide], for which the MIC came to 2 µg/mL.
As to `CC(=O)NC[C@H]1CN(c2ccc(-c3ccc(C(NC(=O)OCc4ccccc4)c4nn[nH]n4)cc3)c(F)c2)C(=O)O1` (mixture of isomers) [Compound 1039, [{4′-[5-(S)-(Acetylamino-methyl)-2-oxo-oxazolidin-3-yl]-2′-fluoro-biphenyl-4-yl}-(2H-tetrazol-5-(R/S)-yl)-methyl]-carbamic acid benzyl ester], the MIC amounted to 128 µg/mL (≈ 229 µM).
Consider `CC(=O)NC[C@H]1CN(c2ccc(-c3ccc(C(N)c4nn[nH]n4)cc3)c(F)c2)C(=O)O1` (mixture of isomers) [Compound 1040, N-(3-{4′-[Amino-(2H-tetrazol-5-(R/S)-yl)-methyl]-2-fluoro-biphenyl-4-yl}-2-oxo-oxazolidin-5-(S)-ylmethyl)-acetamide], for which the MIC worked out at 128 µg/mL (≈ 301 µM).
`CC(=O)NC[C@H]1CN(c2ccc(-c3ccc(C(NC(=O)OCc4ccccc4)c4nnn(C)n4)cc3)c(F)c2)C(=O)O1` (mixture of isomers) [Compound 1041, [{4′-[5-(S)-(Acetylamino-methyl)-2-oxo-oxazolidin-3-yl]-2′-fluoro-biphenyl-4-yl}-(2-methyl-2H-tetrazol-5-(R/S)-yl)-methyl]-carbamic acid benzyl ester]: the MIC stood at 1 µg/mL (≈ 1.74 µM).
The same measure, in the same setting: next, `CC(=O)NC[C@H]1CN(c2ccc(-c3ccc(C(N)c4nnn(C)n4)cc3)c(F)c2)C(=O)O1` (mixture of isomers) [Compound 1042, N-(3-{4′-[Amino-(2-methyl-2H-tetrazol-5-(R/S)-yl)-methyl]-2-fluoro-biphenyl-4-yl}-2-oxo-oxazolidin-5-(S)-ylmethyl)-acetamide]: 64 µg/mL (≈ 146 µM); `CC(=O)NC[C@H]1CN(c2ccc(-c3ccc(CN4CC(CF)OC4=O)cc3)c(F)c2)C(=O)O1` (mixture of isomers) [Compound 1095, N-{3-[2-Fluoro-4′-(5-fluoromethyl-2-oxo-oxazolidin-3-(R/S)ylmethyl)-biphenyl-4-yl]-2-oxo-oxazolidin-5-(S)-ylmethyl}-acetamide]: 0.5 µg/mL (≈ 1.09 µM); `CC(=O)NC[C@H]1CN(c2ccc(-c3ccc(CNC4CNC4)cc3)c(F)c2)C(=O)O1` (racemic) [Compound 2011, N-{3-[4′-(Azetidin-3-(R/S)-ylaminomethyl)-2-fluoro-biphenyl-4-yl]-2-oxo-oxazolidin-5-(S)-ylmethyl}-acetamide]: 8 µg/mL (≈ 19.4 µM).
`CC(=O)NC[C@H]1CN(c2ccc(-c3ccc(CNC(C)c4ccncc4)cc3)c(F)c2)C(=O)O1` (mixture of isomers) [Compound 4159, N-(3-{2-Fluoro-4′-[(1-pyridin-4-(R/S)-yl-ethylamino)-methyl]-biphenyl-4-yl}-2-oxo-oxazolidin-5-(S)-ylmethyl)-acetamide]: the MIC is 2 µg/mL (≈ 4.32 µM).
Take `CC(=O)NC[C@H]1CN(c2ccc(-c3ccc(C(C)NC(C)c4ccncc4)cc3)c(F)c2)C(=O)O1` (mixture of isomers) [Compound 4160, N-(3-{2-Fluoro-4′-[1-(R/S)-(1-pyridin-4-(R/S)-yl-ethylamino)-ethyl]-biphenyl-4-yl}-2-oxo-oxazolidin-5-(S)-ylmethyl)-acetamide]: the MIC came out at 8 µg/mL (≈ 16.8 µM).
Consider `CC(=O)NC[C@H]1CN(c2ccc(-c3ccc(C(CO)NCc4csnn4)cc3)c(F)c2)C(=O)O1` (mixture of isomers) [Compound 4171, N-[3-(2-Fluoro-4′-{2-hydroxy-1-[([1,2,3]thiadiazol-4-(R/S)-ylmethyl)-amino]-ethyl}-biphenyl-4-yl)-2-oxo-oxazolidin-5-(S)-ylmethyl]-acetamide], for which the MIC was found to be 4 µg/mL (≈ 8.24 µM).
Turning to `CC(=O)NC[C@H]1CN(c2ccc(-c3ccc(C(O)Cc4nnn[nH]4)cc3)c(F)c2)C(=O)O1` (stereo in doubt) [Compound 1060, N-(3-{2-Fluoro-4′-[1-(R)-hydroxy-2-(1H-tetrazol-5-yl)-ethyl]-biphenyl-4-yl}-2-oxo-oxazolidin-5-(S)-ylmethyl)-acetamide], the MIC was found to be 64 µg/mL (≈ 145 µM).
For `CC(=O)NC[C@H]1CN(c2ccc(-c3ccc(CNC(=O)C(N)Cc4cccnc4)cc3)c(F)c2)C(=O)O1` (stereo in doubt) [Compound 4310, N-{4′-[5-(S)-(Acetylamino-methyl)-2-oxo-oxazolidin-3-yl]-2′-fluoro-biphenyl-4-ylmethyl}-2-(R)-amino-3-pyridin-3-yl-propionamide], the MIC worked out at 4 µg/mL (≈ 7.91 µM).
Regarding `CC(=O)NC[C@H]1CN(c2ccc(-c3ccc(CCn4ccnn4)cc3)c(F)c2)C(=O)O1` [Compound 1001, N-{3-[2-Fluoro-4′-(2-[1,2,3]triazol-1-yl-ethyl)-biphenyl-4-yl]-2-oxo-oxazolidin-5-(S)-ylmethyl}-acetamide], the MIC came to 2 µg/mL (≈ 4.72 µM).
On to `CC(=O)NC[C@H]1CN(c2ccc(-c3ccc(CCn4ccnc4)cc3)c(F)c2)C(=O)O1` [Compound 1002, N-{3-[2-Fluoro-4′-(2-imidazol-1-yl-ethyl)-biphenyl-4-yl]-2-oxo-oxazolidin-5-(S)-ylmethyl}-acetamide], for which the MIC is 2 µg/mL (≈ 4.73 µM).
Same read-out and setting: next, `CC(=O)NC[C@H]1CN(c2ccc(-c3ccc(CN4CCN(CC(N)=O)CC4)cc3)c(F)c2)C(=O)O1` [Compound 1003, 2-(4-{4′-[5-(S)-(Acetylamino-methyl)-2-oxo-oxazolidin-3-yl]-2′-fluoro-biphenyl-4-ylmethyl}-piperazin-1-yl)-acetamide]: 2 µg/mL (≈ 4.14 µM); `CC(=O)NC[C@H]1CN(c2ccc(-c3ccc(CN4CCN(CC#N)CC4)cc3)c(F)c2)C(=O)O1` [Compound 1004, N-{3-[4′-(4-Cyanomethyl-piperazin-1-ylmethyl)-2-fluoro-biphenyl-4-yl]-2-oxo-oxazolidin-5-(S)-ylmethyl}-acetamide]: 2 µg/mL (≈ 4.3 µM); `CC(=O)NC[C@H]1CN(c2ccc(-c3ccc(CN4CCN(CC#N)CC4)c(F)c3)c(F)c2)C(=O)O1` [Compound 1005, N-{3-[4′-(4-Cyanomethyl-piperazin-1-ylmethyl)-2,3′-difluoro-biphenyl-4-yl]-2-oxo-oxazolidin-5-(S)-ylmethyl}-acetamide]: 2 µg/mL (≈ 4.14 µM).
On to `CC(=O)NC[C@H]1CN(c2ccc(-c3ccc(CN4CCN(C=O)CC4)cc3)c(F)c2)C(=O)O1` [Compound 1006, N-{3-[2-Fluoro-4′-(4-formyl-piperazin-1-ylmethyl)-biphenyl-4-yl]-2-oxo-oxazolidin-5-(S)-ylmethyl}-acetamide], for which the MIC was 0.5 µg/mL (≈ 1.1 µM).
As for `CC(=O)NC[C@H]1CN(c2ccc(-c3ccc(Cc4nnn[nH]4)cc3)c(F)c2)C(=O)O1` [Compound 1007, N-{3-[2-Fluoro-4′-(1H-tetrazol-5-(S)-ylmethyl)-biphenyl-4-yl]-2-oxo-oxazolidin-5-(S)-ylmethyl}-acetamide], the MIC amounted to 8 µg/mL (≈ 19.5 µM).
With `CC(=O)NC[C@H]1CN(c2ccc(-c3ccc(Cn4ccnc4)cc3)c(F)c2)C(=O)O1` [Compound 1008, N-[3-(2-Fluoro-4′-imidazol-1-ylmethyl-biphenyl-4-yl)-2-oxo-oxazolidin-5-(S)-ylmethyl]-acetamide], the MIC was 0.5 µg/mL (≈ 1.22 µM).
On to `CC(=O)NC[C@H]1CN(c2ccc(-c3ccc(Cn4ccnn4)c(F)c3)c(F)c2)C(=O)O1` [Compound 1009, N-[3-(2,3′-Difluoro-4′-[1,2,3]triazol-1-ylmethyl-biphenyl-4-yl)-2-oxo-oxazolidin-5-(S)-ylmethyl]-acetamide], for which the MIC was determined as 0.25 µg/mL (≈ 0.585 µM).
Consider `CC(=O)NC[C@H]1CN(c2ccc(-c3ccc(Cn4ccnc4)c(F)c3)c(F)c2)C(=O)O1` [Compound 1010, N-[3-(2,3′-Difluoro-4′-imidazol-1-ylmethyl-biphenyl-4-yl)-2-oxo-oxazolidin-5-(S)-ylmethyl]-acetamide], for which the MIC was 1 µg/mL (≈ 2.35 µM).
With `CC(=O)NC[C@H]1CN(c2ccc(-c3ccc(Cn4cc(CN)nn4)cc3)c(F)c2)C(=O)O1` [Compound 1011, N-{3-[4′-(4-Aminomethyl-[1,2,3]triazol-1-ylmethyl)-2-fluoro-biphenyl-4-yl]-2-oxo-oxazolidin-5-(S)-ylmethyl}-acetamide], the MIC was 1 µg/mL (≈ 2.28 µM).
As for `CNCc1cn(Cc2ccc(-c3ccc(N4C[C@H](CNC(C)=O)OC4=O)cc3F)cc2)nn1` [Compound 1012, N-{3-[2-Fluoro-4′-(4-methylaminomethyl-[1,2,3]triazol-1-ylmethyl)-biphenyl-4-yl]-2-oxo-oxazolidin-5-(S)-ylmethyl}-acetamide], the MIC was 2 µg/mL (≈ 4.42 µM).
For the molecule `CC(=O)NC[C@H]1CN(c2ccc(-c3ccc(Cn4cc(CN(C)C)nn4)cc3)c(F)c2)C(=O)O1` [Compound 1013, N-{3-[4′-(4-Dimethylaminomethyl-[1,2,3]triazol-1-ylmethyl)-2-fluoro-biphenyl-4-yl]-2-oxo-oxazolidin-5-(S)-ylmethyl}-acetamide], the MIC came out at 4 µg/mL (≈ 8.57 µM).
As to `CC(=O)NC[C@H]1CN(c2ccc(-c3ccc(Cn4cc(CNC(=O)CN)nn4)cc3)c(F)c2)C(=O)O1` [Compound 1014, N-(1-{4′-[5-(S)-(Acetylamino-methyl)-2-oxo-oxazolidin-3-yl]-2′-fluoro-biphenyl-4-ylmethyl}-1H-[1,2,3]triazol-4-ylmethyl)-2-amino-acetamide], the MIC is 8 µg/mL (≈ 16.1 µM).

Still in this test, the particulars now being: minimum inhibitory concentrations for S. aureus.
With `CC(=O)NC[C@H]1CN(c2ccc(-c3ccc(C(CO)NCc4csnn4)cc3)c(F)c2)C(=O)O1` (mixture of isomers) [Compound 4172, N-[3-(2-Fluoro-4′-{2-hydroxy-1-[([1,2,3]thiadiazol-4-(R/S)-ylmethyl)-amino]-ethyl}-biphenyl-4-yl)-2-oxo-oxazolidin-5-(S)-ylmethyl]-acetamide], the MICs came out at 8 µg/mL.
